Assay results: patent publication US7427408B2, “Quorum sensing and biofilm formation” (priority 2002, dated 2008)

Experiments:
[1] = tested on: S. mutans biofilms (wildtype and luxS mutant); assay: Treatment of in vitro biofilm with SDS (detergent resistance); format: cell-based, Streptococcus mutans; details: 1% SDS, shaken at 150 rpm for one hour
Protocol: Three samples of wildtype and mutant biofilms grown on glass coverslips were shaken at 150 rpm for one hour. The OD600 of the resulting supernatants were compared.
(§1) Biofilms of S. mutans were grown as follows. Individual sterile culture dishes were filled with 2.5 mL of brain heart infusion broth supplemented with 1% (w/v) sucrose. Next, a sterile 18 mm glass microscope cover slip was added to each dish and the culture dish was covered. Each sample was then inoculated with a defined volume of overnight culture. The dishes were incubated anaerobically at 37° C. overnight.
Biofilms were grown overnight using previously described conditions. For treatment with SDS, cover-slips were removed from overnight incubation and rinsed briefly. These were then placed into a fresh culture dish and 2mL of sterile, 1% (w/v) SDS solution was added to each dish. The biofilms were placed on a standard shaker set at 150 rpm for one hour at room temperature. […] These samples were measured for their OD600 values. […]
(§2) As biofilms are known to be very resistant to detergents and biocides, we were also interested to determine if this property was influenced by the luxS mutation. […] These supernatants were then checked by microscopy to ensure that cells were not clumped, and subsequently, measured for the OD600. […]

[2] = tested on: wildtype S. mutans biofilms; assay: Treatment of in vitro wildtype biofilm with ampicillin; format: cell-based, Streptococcus mutans; details: 16 hours
Protocol: as §1
Biofilms were grown overnight using previously described conditions. For treatment with SDS, cover-slips were removed from overnight incubation and rinsed briefly. These were then placed into a fresh culture dish and 2mL of sterile, 1% (w/v) SDS solution was added to each dish. The biofilms were placed on a standard shaker set at 150 rpm for one hour at room temperature. Next, supernatant samples were checked at 40× magnification to confirm that cells were fully individualized and not connected in chains. These samples were measured for their OD600 values. For treatment with antibiotics, biofilms were again grown under standard conditions overnight. […]
as §2

[3] = tested on: V. harveyi BB170 (AI-2 reporter strain); assay: AI-2 luminescence reporter assay of S. mutans conditioned media; format: cell-based, Vibrio harveyi; details: S. mutans incubated 3 hours in AB media with sucrose at 1% final concentration
Protocol: S. mutans was grown and assayed as described in Materials and Methods. Cells were grown overnight and resuspended to an OD600 of 0.4 in reporter assay (AB) media and incubated with aeration for 3 hours at 37° C. One sample was incubated in AB alone, while the other had sucrose added to a final concentration of 1%.
The AI-2 luminescence reporter assay was performed essentially as described (38), with the following modifications. To obtain cell free conditioned media, S. mutans was grown overnight as described. Stationary phase cells were resuspended in AB media to an OD600 of 0.4. Cells were then incubated at 37° C. with aeration for 3 hrs. […]
To determine luminescence, an overnight culture of V. harveyi BB170 was diluted 1:1000 into fresh AB medium and 180 μL of cells was added to each 1.5 mL microfuge tube. […]
To determine levels of background luminescence, a sample containing 200 μL of 1:1000 diluted V. harveyi was also included. […] All samples were measured hourly until peak induction at the 3 hr time point. Measurements were collected using a TD 20/20 luminometer and expressed as arbitrary luminescence units.
Since S. mutans is an acidogenic bacterium, pH readings were taken to ensure that there were no negative effects due to lowered pH.

CCCCCCCCCCCCOS(=O)(=O)[O-].[Na+] [SDS]
OD600 of supernatant, wildtype relative to luxS mutant [1]: about 6 fold

CC1(C)S[C@@H]2[C@H](NC(=O)[C@H](N)c3ccccc3)C(=O)N2[C@H]1C(=O)O [ampicillin]
cells surviving ampicillin treatment ([2]; 50 μg/mL ampicillin): < 1% | cells surviving ampicillin treatment ([2]; 500 μg/mL ampicillin): none survived

OC[C@H]1O[C@@](CO)(O[C@H]2O[C@H](CO)[C@@H](O)[C@H](O)[C@H]2O)[C@@H](O)[C@@H]1O [sucrose]
luminescence (AI-2 induction) relative to background [3]: potent reduction in luminescence to below background values
